# Test results published in patent publication EP0311100A2, “Derivatives of dideoxycytidine, their preparation and pharmaceutical use” (F. HOFFMANN-LA ROCHE AG, priority 1987, dated 1989).
# Legend:
# [1] = apparent partition coefficient n-octanol / phosphate buffer pH 7,4 (method of Hansch et al.); format: physicochemical; details: n-octanol / aqueous phosphate buffer pH 7,4
# From the text: Wie oben erwähnt, zeigen die erfindungsgemässen Verbindungen grössere Stabilität und Lipophilität als bekannte Nucleotidderivate. In der nachstehenden Tabelle I sind für ausgewählte erfindungsgemässe Verbindungen die gemessenen Verteilungskoeffizienten angegeben, die wiederum ein Anzeichen für die Lipophilität der Verbindung darstellt. Tabelle I
# [2] = stability in human plasma at 37°C (HPLC); format: in vitro ADME; details: human plasma 37°C; for % N, O-Diacyl (1a): incubated 1a; for % N, O-Diacyl (1b): incubated 1b; for % N, O-Diacyl (1c): incubated 1c; for % N-Acyl (2a): incubated 2a; for % N-Acyl (2b): incubated 2b; for % N-Acyl (2c): incubated 2c
# From the text: (§1) Die Stabilität ausgewählter erfindungsgemässer Verbindungen in Methanol/Wasser oder menschlichem Blutplasma wurde wie nachstehend angegeben geprüft:
# Die folgenden Verbindungen wurden auf Stabilität im menschlichen Plasma geprüft:
# (§2) Zunächst wurden die HPLC-Bedingungen für die Probenmessung bestimmt, d.h. eine Revers-Phasen C-18-Säule mit einem Lösungsmittelsystem mit variierenden Verhältnissen von Methanol: […] Natriumphosphat, pH 6,8.
# (§3) Danach wurde die maximale UV-Absorption für jede Probe und die grösste Stabilität unter Laborbedingungen für jede Probe in Methanol:Wasser bestimmt. Danach wurde die Stabilität im menschlichen Plasma untersucht.
# Das im Experiment verwendete menschliche Plasma wurde bis zur Verwendung eingefroren.
# (§4) Die HPLC-Apparatur war ein Gradientsystem bestehend aus einem Modell 1601 Gradient Master, einer Constametric I Pumpe und einer Constametric III Pumpe. Weiterhin wurden ein LDC-Spectromometer III als Detektor und ein Waters 712B Wisp Autoinjektor verwendet. Allen Proben wurde eine ODS-3 RAC II, 5 µ, 15 cm x 4,0 mm ID-Säule (Whatmann, Clifton, N.J.) verwendet. Das Lösungsmittelsystem bestand aus Methanol: 0,001M NaH₂PO₄ (pH 6,8) in den folgenden Proportionen: 1b, 2b - 50:50; 1a, 2a - 43:57; 1c, 2c - 50:50.
# Jede Verbindung wurde in ein konisches 15 ml Teströhrchen eingewogen und in DMSO gelöst, so dass eine Vorratslösung von 10 mg/ml erhalten wurde. Die Proben für die Standardkurve wurden durch Verdünnen der DMSO-Vorratslösung mit der mobilen Phasen wie folgt hergestellt: […]
# (§5) Die chromatographischen Daten wurden mit einem Nelson 3000 Datasystem gesammelt. Peakhöhen der Kalibrierungs-Standards jeder Verbindung wurden gemessen und gegen bekannte Konzentrationen aufgetragen. Eine lineare Kurve der kleinsten Quadrate (ungewichtet) wurde berechnet und alle Probenkonzentrationen wurden aus dieser Kurve rückgerechnet. Die Resultate sind in den Tabellen II-VIII zusammengestellt. Tabelle II
# [3] = stability in methanol/water (HPLC); format: physicochemical
# From the text: as §1, §2, §3, §4
# Jede Verbindung wurde in ein konisches 15 ml Teströhrchen eingewogen und in DMSO gelöst, so dass eine Vorratslösung von 10 mg/ml erhalten wurde. Die Proben für die Standardkurve wurden durch Verdünnen der DMSO-Vorratslösung mit der mobilen Phasen wie folgt hergestellt:
# as §5
structure (smiles),measurement,setting,value
"Nc1ccn([C@H]2C=C[C@@H](CO)O2)c(=O)n1 [2′,3′-Didehydro-2′,3′-dideoxycytidin, reference compound]","Scheinbarer Verteilungskoeffizient zwischen n-Octanol und Phosphatpuffer pH 7,4",[1],0.03
"CC(=O)OC[C@@H]1CC[C@H](n2ccc(N)nc2=O)O1 [2′,3′-Dideoxycytidin 5′-acetat]","Scheinbarer Verteilungskoeffizient zwischen n-Octanol und Phosphatpuffer pH 7,4",[1],0.14
"Nc1ccn([C@H]2CC[C@@H](CO)O2)c(=O)n1 [2′,3′-Dideoxycytidin, reference compound]","Scheinbarer Verteilungskoeffizient zwischen n-Octanol und Phosphatpuffer pH 7,4",[1],0.05
"CC(=O)Nc1ccn([C@H]2C=C[C@@H](COC(C)=O)O2)c(=O)n1 [N-Acetyl 2′,3′-didehydro-2′,3′-dideoxycytidin 5′-acetat]","Scheinbarer Verteilungskoeffizient zwischen n-Octanol und Phosphatpuffer pH 7,4",[1],0.39
"CC(=O)Nc1ccn([C@H]2CC[C@@H](COC(C)=O)O2)c(=O)n1 [N-Acetyl 2′,3′-dideoxycytidin 5′-acetat]","Scheinbarer Verteilungskoeffizient zwischen n-Octanol und Phosphatpuffer pH 7,4",[1],0.62
"CC(=O)Nc1ccn([C@H]2CC[C@@H](CO)O2)c(=O)n1 [N-Acetyl 2′,3′-dideoxycytidin]","Scheinbarer Verteilungskoeffizient zwischen n-Octanol und Phosphatpuffer pH 7,4",[1],0.22
"O=C(Nc1ccn([C@H]2CC[C@@H](CO)O2)c(=O)n1)c1ccccc1 [N-Benzoyl 2′,3′-dideoxycytidin]","Scheinbarer Verteilungskoeffizient zwischen n-Octanol und Phosphatpuffer pH 7,4",[1],15.0
"CCCCCCCCCCCCCCCC(=O)Nc1ccn([C@H]2CC[C@@H](COC(=O)CCCCCCCCCCCCCCC)O2)c(=O)n1 [N-Palmitoyl 2′,3′-dideoxycytidin 5′-palmitoat]","Scheinbarer Verteilungskoeffizient zwischen n-Octanol und Phosphatpuffer pH 7,4",[1],> 1000
"CCC(=O)Nc1ccn([C@H]2CC[C@@H](COC(=O)CC)O2)c(=O)n1 [Verbindung 1a, N-Propanoyl 2′,3′-dideoxycytidin 5′-propanoat]","% N, O-Diacyl (1a)",[2]; time 0 (Tage),86%
same,"% N, O-Diacyl (1a)","[2]; time 0,5 (Tage)",70%
same,"% N, O-Diacyl (1a)",[2]; time 1 (Tage),40%
same,"% N, O-Diacyl (1a)",[2]; time 2 (Tage),17%
same,"% N, O-Diacyl (1a)",[2]; time 4 (Tage),10%
same,"% N, O-Diacyl (1a)",[2]; time 24 (Tage),1%
same,"Scheinbarer Verteilungskoeffizient zwischen n-Octanol und Phosphatpuffer pH 7,4",[1],6.8
same,"% N, O-Diacyl (1a,1b,1c)",[3]; time 0 days,100%
same,"% N, O-Diacyl (1a,1b,1c)",[3]; time 14 days,43%
same,"% N-Acyl (2a,2b, 2c)",[3]; time 14 days,18%
same,"% O-Acyl- (3a,3b,3c)",[3]; time 14 days,27%
"CC(C)C(=O)Nc1ccn([C@H]2CC[C@@H](COC(=O)C(C)C)O2)c(=O)n1 [Verbindung 1b, N-(2-Methylpropanoyl) 2′,3′-dideoxycytidin 5′-(2-methylpropanoat)]","% N, O-Diacyl (1b)",[2]; time 0 (Tage),95%
same,"% N, O-Diacyl (1b)","[2]; time 0,5 (Tage)",83%
same,"% N, O-Diacyl (1b)",[2]; time 1 (Tage),38%
same,"% N, O-Diacyl (1b)",[2]; time 2 (Tage),9%
same,"% N, O-Diacyl (1b)",[2]; time 4 (Tage),4%
same,"% N, O-Diacyl (1b)",[2]; time 24 (Tage),3%
same,"Scheinbarer Verteilungskoeffizient zwischen n-Octanol und Phosphatpuffer pH 7,4",[1],58.0
same,"% N, O-Diacyl (1a,1b,1c)",[3]; time 0 days,100%
same,"% N, O-Diacyl (1a,1b,1c)",[3]; time 14 days,73%
same,"% N-Acyl (2a,2b, 2c)",[3]; time 14 days,8%
same,"% O-Acyl- (3a,3b,3c)",[3]; time 14 days,17%
same,% ddC 4,[3]; time 14 days,2%
"CCCC(=O)Nc1ccn([C@H]2CC[C@@H](COC(=O)CCC)O2)c(=O)n1 [Verbindung 1c, N-Butanoyl 2′,3′-dideoxycytidin 5′-butanoat]","% N, O-Diacyl (1c)",[2]; time 0 (Tage),64%
same,"% N, O-Diacyl (1c)","[2]; time 0,5 (Tage)",23%
same,"% N, O-Diacyl (1c)",[2]; time 1 (Tage),10%
same,"% N, O-Diacyl (1c)",[2]; time 2 (Tage),7%
same,"% N, O-Diacyl (1c)",[2]; time 4 (Tage),6%
same,"% N, O-Diacyl (1c)",[2]; time 24 (Tage),6%
same,"Scheinbarer Verteilungskoeffizient zwischen n-Octanol und Phosphatpuffer pH 7,4",[1],70.0
same,"% N, O-Diacyl (1a,1b,1c)",[3]; time 0 days,100%
same,"% N, O-Diacyl (1a,1b,1c)",[3]; time 14 days,43%
same,"% N-Acyl (2a,2b, 2c)",[3]; time 14 days,20%
same,"% O-Acyl- (3a,3b,3c)",[3]; time 14 days,32%
same,% ddC 4,[3]; time 14 days,25%
"CCC(=O)Nc1ccn([C@H]2CC[C@@H](CO)O2)c(=O)n1 [Verbindung 2a, N-Propanoyl 2′,3′-dideoxycytidin]",% N-Acyl (2a),[2]; time 0 (Tage),97%
same,% N-Acyl (2a),"[2]; time 0,5 (Tage)",87%
same,% N-Acyl (2a),[2]; time 1 (Tage),85%
same,% N-Acyl (2a),[2]; time 2 (Tage),96%
same,% N-Acyl (2a),[2]; time 4 (Tage),99%
same,% N-Acyl (2a),[2]; time 24 (Tage),80%
same,"Scheinbarer Verteilungskoeffizient zwischen n-Octanol und Phosphatpuffer pH 7,4",[1],0.83
same,"% N-Acyl (2a,2b, 2c)",[3]; time 0 days,100%
same,"% N-Acyl (2a,2b, 2c)",[3]; time 14 days,56%
same,% ddC 4,[3]; time 14 days,28%
"CC(C)C(=O)Nc1ccn([C@H]2CC[C@@H](CO)O2)c(=O)n1 [Verbindung 2b, N-(2-Methylpropanoyl) 2′,3′-dideoxycytidin]",% N-Acyl (2b),[2]; time 0 (Tage),83%
same,% N-Acyl (2b),"[2]; time 0,5 (Tage)",88%
same,% N-Acyl (2b),[2]; time 1 (Tage),61%
same,% N-Acyl (2b),[2]; time 2 (Tage),78%
same,% N-Acyl (2b),[2]; time 4 (Tage),89%
same,% N-Acyl (2b),[2]; time 24 (Tage),92%
same,"Scheinbarer Verteilungskoeffizient zwischen n-Octanol und Phosphatpuffer pH 7,4",[1],2.38
same,"% N-Acyl (2a,2b, 2c)",[3]; time 0 days,100%
same,"% N-Acyl (2a,2b, 2c)",[3]; time 14 days,83%
same,"% O-Acyl- (3a,3b,3c)",[3]; time 14 days,17%
same,% ddC 4,[3]; time 14 days,2%
"CCCC(=O)Nc1ccn([C@H]2CC[C@@H](CO)O2)c(=O)n1 [Verbindung 2c, N-Butanoyl 2′,3′-dideoxycytidin]",% N-Acyl (2c),[2]; time 0 (Tage),101%
same,% N-Acyl (2c),"[2]; time 0,5 (Tage)",95%
same,% N-Acyl (2c),[2]; time 1 (Tage),92%
same,% N-Acyl (2c),[2]; time 2 (Tage),90%
same,% N-Acyl (2c),[2]; time 4 (Tage),85%
same,% N-Acyl (2c),[2]; time 24 (Tage),77%
same,"Scheinbarer Verteilungskoeffizient zwischen n-Octanol und Phosphatpuffer pH 7,4",[1],2.67
same,"% N-Acyl (2a,2b, 2c)",[3]; time 0 days,100%
same,"% N-Acyl (2a,2b, 2c)",[3]; time 14 days,76%
same,% ddC 4,[3]; time 14 days,20%
